In PubChem BioAssay AID1963962 (Molecular Pharmacology Branch, DTP, NCI, 2024):

System: 967376-340-R-J2-PDC multicell spheroid viability
Assay: Anticancer human tumor 967376-340-R-J2-PDC patient-derived colon adenocarcinoma cell line growth inhibition [PI3K]
Conditions: for IC50: curve of first compound; for viability, T/C: stronger effect = lower value
Description: Combinatorial screen of targeted agents with the PI3K inhibitors inavolisib, alpelisib, duvelisib, and copanlisib in multi-cell type tumor spheroids
A high-throughput screen of multi-cell type tumor spheroids was designed to identify active combinations of targeted small molecules and PI3K pathway inhibitors. Complex spheroids include a stromal component modeled by human endothelial cells (HUVEC) and fibroblasts modeled by human mesenchymal stem cells (MSCs). The concentration ranges selected for each drug and investigational agent were based upon clinically achievable concentrations if the clinical Cmax of the agent was known.
Compounds. The drugs and investigational agents: inavolisib (NSC800729), alpelisib (NSC765974), duvelisib (NSC772469), copanlisib (NSC816437), ipatasertib (NSC767898), afuresertib (NSC778305), talazoparib (NSC767125), sapanisertib (NSC764658), selumetinib (NSC741078), tovorafenib (DAY101, NSC766906), vemurafenib (NSC761431), ravoxertinib (NSC781343), sotorasib (NSC818433), MRTX1133 (NSC 836407), abemaciclib (NSC 768073), palbociclib (NSC758247), venetoclax (NSC 766270), SY5609 (NSC837396), enzalutamide (NSC755605), and darolutamide (NSC825331), were obtained from the National Cancer Institute (NCI) Developmental Therapeutics Program Chemical Repository. The FDA-approved anticancer drug set is available from the NCI Developmental Therapeutics Program. […] The stock solutions were prepared in dimethyl sulfoxide (DMSO, Sigma-Aldrich, St. Louis, MO, cat. D2650) at 800-fold the tested concentration and stored at -70 degrees C prior to their use. All drugs and investigational agents were tested over a range starting from a high concentration at or near the clinical Cmax and decreasing in half-log increments. If the clinical Cmax for an agent had not been determined, the highest concentration tested was 10 microM.
Cell Culture. All cells were maintained in an incubator at 37 degrees C and 5% CO2 with 95% humidity. The PDC lines were cultured according to standard operating procedures established by the NCI PDMR (https://pdmr.cancer.gov/sops/default.htm). All PDCs were thawed and cultured in Matrigel-coated flasks prepared with a working solution of 1X Ham's F-12 nutrient mix, without supplementation (Invitrogen, Waltham, MA, cat. 11765054), 100 U/mL penicillin-streptomycin (Invitrogen, cat. 15140122), and 2.5% Matrigel (Corning Inc., Corning, NY, cat. 354248) for the first three passages. The 354836-022-R-J1-PDC, 475296-252-R-J1-PDC, and 997726-040-R-J2-PDC lines were cultured in 6A media, which includes advanced DMEM/F-12 (Thermo Fisher Scientific, cat. 12634028), 10 mM HEPES (Thermo Fisher Scientific, cat. 15630080), 1X GlutaMAX supplement (Thermo Fisher Scientific, cat. 35050061), 0.1 mg/mL primocin (InvivoGen, San Diego, CA, cat. ant-pm-2), 10% defined fetal bovine serum, heat inactivated (HyClone Laboratories Inc., Logan, UT, cat. SH30070.03HI), 50% L-WRN conditioned media (ATCC, cat. CRL-3276), 1.25 mM N-Acetyl-L-cysteine (Sigma-Aldrich, cat. A9165), 10 mM nicotinamide (Sigma-Aldrich, cat. N0636), 1X B-27 supplement (Thermo Fisher Scientific, cat. 17504044), 1X N-2 supplement (Thermo Fisher Scientific, cat. 17502048), and 10 microM Y-27632 dihydrochloride (Tocris Bioscience, Bristol, United Kingdom, cat. 1254). The 624824-186-R-J2-PDC line was cultured in 6C/Colon 1B media, which includes all 6A media components plus 50 ng/mL human EGF recombinant protein (Thermo Fisher Scientific, cat. PHG0311). […]

[1] = second compound 0.00316 µM, first compound 0.0316 µM
[2] = second compound 0.00316 µM, first compound 0.1 µM
[3] = second compound 0.00316 µM, first compound 0.316 µM
[4] = second compound 0.00316 µM, first compound 1 µM
[5] = second compound 0.00316 µM, first compound 3.16 µM
[6] = second compound 0.00316 µM, first compound 10 µM
[7] = second compound 0.01 µM, first compound 0.0316 µM
[8] = second compound 0.01 µM, first compound 0.1 µM
[9] = second compound 0.01 µM, first compound 0.316 µM
[10] = second compound 0.01 µM, first compound 1 µM
[11] = second compound 0.01 µM, first compound 3.16 µM
[12] = second compound 0.01 µM, first compound 10 µM
[13] = second compound 0.0316 µM, first compound 0.0316 µM
[14] = second compound 0.0316 µM, first compound 0.1 µM
[15] = second compound 0.0316 µM, first compound 0.316 µM
[16] = second compound 0.0316 µM, first compound 1 µM
[17] = second compound 0.0316 µM, first compound 3.16 µM
[18] = second compound 0.0316 µM, first compound 10 µM
[19] = second compound 0.1 µM, first compound 0.0316 µM
[20] = second compound 0.1 µM, first compound 0.1 µM
[21] = second compound 0.1 µM, first compound 0.316 µM
[22] = second compound 0.1 µM, first compound 1 µM
[23] = second compound 0.1 µM, first compound 3.16 µM
[24] = second compound 0.1 µM, first compound 10 µM
[25] = second compound 0.316 µM, first compound 0.0316 µM
[26] = second compound 0.316 µM, first compound 0.1 µM
[27] = second compound 0.316 µM, first compound 0.316 µM
[28] = second compound 0.316 µM, first compound 1 µM
[29] = second compound 0.316 µM, first compound 3.16 µM
[30] = second compound 0.316 µM, first compound 10 µM
[31] = second compound 1 µM, first compound 0.0316 µM
[32] = second compound 1 µM, first compound 0.1 µM
[33] = second compound 1 µM, first compound 0.316 µM
[34] = second compound 1 µM, first compound 1 µM
[35] = second compound 1 µM, first compound 3.16 µM
[36] = second compound 1 µM, first compound 10 µM
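Also: spheroids exposed to agents for 7 days before read-out.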
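For viability, T/C in this document: luminescence used as surrogate of cell viability.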

C#Cc1c(F)ccc2cc(O)cc(-c3ncc4c(N5CC6CCC(C5)N6)nc(OCC56CCCN5CC(F)C6)nc4c3F)c12 (centres undefined) + CC(Nc1ccc2c(c1)OCCn1cc(N3C(=O)OCC3C(F)F)nc1-2)C(N)=O
IC50 (second compound 0.00316 µM): > 10 µM
IC50 (second compound 0.01 µM): > 10 µM
IC50 (second compound 0.0316 µM): > 10 µM
IC50 (second compound 0.1 µM): > 10 µM
IC50 (second compound 0.316 µM): > 10 µM
IC50 (second compound 1 µM): 2.26 µM
viability, T/C [1]: 115%
viability, T/C [2]: 99.1%
viability, T/C [3]: 72.3%
viability, T/C [4]: 68.5%
viability, T/C [5]: 94.5%
viability, T/C [6]: 65.7%
viability, T/C [7]: 81.8%
viability, T/C [8]: 86%
viability, T/C [9]: 78.7%
viability, T/C [10]: 87.5%
viability, T/C [11]: 97.7%
viability, T/C [12]: 59.6%
viability, T/C [13]: 78.5%
viability, T/C [14]: 105%
viability, T/C [15]: 71.6%
viability, T/C [16]: 62.3%
viability, T/C [17]: 98.7%
viability, T/C [18]: 56.6%
viability, T/C [19]: 79.7%
viability, T/C [20]: 82%
viability, T/C [21]: 86.6%
viability, T/C [22]: 70.7%
viability, T/C [23]: 62%
viability, T/C [24]: 58.6%
viability, T/C [25]: 55.1%
viability, T/C [26]: 73.9%
viability, T/C [27]: 63.8%
viability, T/C [28]: 60.7%
viability, T/C [29]: 67.6%
viability, T/C [30]: 45.5%
viability, T/C [31]: 62.7%
viability, T/C [32]: 58.6%
viability, T/C [33]: 57.4%
viability, T/C [34]: 56.3%
viability, T/C [35]: 47.8%
viability, T/C [36]: 32.9%

CC(Cn1ccc(-c2ccc(C#N)c(Cl)c2)n1)NC(=O)c1cc(C(C)O)[nH]n1 (centres undefined) + CC(Nc1ccc2c(c1)OCCn1cc(N3C(=O)OCC3C(F)F)nc1-2)C(N)=O
IC50 (second compound 0.00316 µM): > 10 µM
IC50 (second compound 0.01 µM): > 10 µM
IC50 (second compound 0.0316 µM): > 10 µM
IC50 (second compound 0.1 µM): > 10 µM
IC50 (second compound 0.316 µM): > 10 µM
IC50 (second compound 1 µM): > 10 µM
viability, T/C [1]: 109%
viability, T/C [2]: 112%
viability, T/C [3]: 126%
viability, T/C [4]: 93.5%
viability, T/C [5]: 125%
viability, T/C [6]: 105%
viability, T/C [7]: 115%
viability, T/C [8]: 78.3%
viability, T/C [9]: 126%
viability, T/C [10]: 101%
viability, T/C [11]: 102%
viability, T/C [12]: 117%
viability, T/C [13]: 82.6%
viability, T/C [14]: 104%
viability, T/C [15]: 101%
viability, T/C [16]: 97.1%
viability, T/C [17]: 93.7%
viability, T/C [18]: 84.8%
viability, T/C [19]: 84.5%
viability, T/C [20]: 74.1%
viability, T/C [21]: 75%
viability, T/C [22]: 83.9%
viability, T/C [23]: 85.2%
viability, T/C [24]: 67.4%
viability, T/C [25]: 75.7%
viability, T/C [26]: 72.3%
viability, T/C [27]: 76.4%
viability, T/C [28]: 62.4%
viability, T/C [29]: 69.4%
viability, T/C [30]: 78.2%
viability, T/C [31]: 59.8%
viability, T/C [32]: 54%
viability, T/C [33]: 66.7%
viability, T/C [34]: 51%
viability, T/C [35]: 61.2%
viability, T/C [36]: 60.2%
